Measurements published in patent US9522962B2, “Peptides, conjugates and method for increasing immunogenicity of a vaccine” (Academisch Ziekenhuis Leiden h.o.d.n. LUMC, priority 2010, dated 2016).

B1: TNP-OVA: non-related protein antigen (OVA) coupled to the hapten TNP (trinitrophenyl group) (conjugate, UniProt P01012 2-386, looked up)
Ovalbumin: GSIGAASMEFCFDVFKELKVHHANENIFYCPIAIMSALAMVYLGAKDSTRTQINKVVRFDKLPGFGDSIEAQCGTSVNVHSSLRDILNQITKPNDVYSFSLASRLYAEERYPILPEYLQCVKELYRGGLEPINFQTAADQARELINSWVESQTNGIIRNVLQPSSVDSQTAMVLVNAIVFKGLWEKAFKDEDTQAMPFRVTEQESKPVQMMYQIGLFRVASMASEKMKILELPFASGTMSMLVLLPDEVSGLEQLESIINFEKLTEWTSSNVMEERKIKVYLPRMKMEEKYNLTSVLMAMGITDVFSSSANLSGISSAESLKISQAVHAAHAEINEAGREVVGSAEAGVDAASVSEEFRADHPFLFCIKHIATNAVLFFGRCVSP
modifications: trinitrophenyl hapten conjugate

Experiments:
[1] = test system: antibodies in TETAQUIN® (anti-TTd antibodies); format: binding, human; settings: Table 5, Ala scan of […]
[2] = test system: antibodies in individual human sera (e.g. serum 034960); test: Tettox ELISA of biotinylated peptides on individual human sera; format: binding; settings: Table 5, Ala scan of […]; human serum 034960 diluted 100x
Description: a 96-wells plate (preferably from Euro-Diagnostica, Arnhem, The Netherlands) is coated with streptavidin. The streptavidin coated 96 wells plate is blocked with PBS containing 5% BSA (200 μl/well, 1 h, room temperature). Subsequently, the plate is washed three times with PBS containing 0.05% TWEEN20® (polysorbate 20). A biotinylated peptide is coated by 1 h incubation at room temperature with 100 μl/well of a 2 μg/ml solution of the biotinylated peptide in PBS containing 1% BSA. The plate is washed three times with PBS containing 0.05% TWEEN20® (polysorbate 20) followed by incubation for 1 h at room temperature with 100 μl serum from […] a human subject as defined above (preferably having a high titer of anti-TTd antibodies) that had been diluted at least 100, 200, 400, 500 or 1000 times and preferably not more than 100,000, 10,000, 7,500, 5,000 or 2,500 times with PBS containing 1% BSA. Then the plate is washed three times with PBS containing 0.05% TWEEN20®(polysorbate 20). Each well is incubated for 1 h at room temperature with a HRP-conjugated IgG antibody (mouse anti-human IgG-HRP monoclonal, clone G18-145, cat no 555788, Becton Dickinson, 100 μl/well of a 1000× dilution in PBS containing 0.05% TWEEN20® (polysorbate 20)) after which the plate is washed three times with PBS containing 0.05% TWEEN20® (polysorbate 20). Development is performed with 2,2′-azino-di-(3-ethylbenzthiazoline sulfonic acid), ABTS+H2O2 1/1000, 100 μl/well. Optical density is measured at 415 nm with a BIO-RAD, model 680, microplate reader. In each plate, preferably a negative contol is included, more preferably at least in triplicate. A preferred negative contol is serum from a human subject without detectable anti-TTd antibodies. Another preferred negative control is a solution of BSA. A peptide according to (ii) above is a peptide according to the invention if it is bound by antibodies in at least 40, 45, 50, 55, 60, 65, 70, 75, 80, 85, 87, 90, 91, 92, 93, 94, 95, 96, 97, 98, 99% most preferably 100% of the tested human serum samples. A peptide is considered to be bound by antibodies in a serum sample if the determined optical density for that particular serum sample is at least 2.0, more preferably 2.5, 3.0, 3.5 or more times higher as compared to the optical density that is determined for the negative control.
Streptavidin coated 96 wells plates (Euro-Diagnostica) were blocked with PBS containing 5% BSA (200 μl/well, 1 h, room temperature). Plates were washed three times with PBS containing 0.05% TWEEN20® (polysorbate 20). Coating of the biotinylated peptides was performed by 1 h incubation at room temperature with 100 μl/well of a 2 μg/ml solution of the biotinylated peptide in PBS containing 1% BSA. Plates were washed three times with PBS containing 0.05% TWEEN20®. Wells were incubated for 1 h at room temperature with either 100 μl TETAQUIN® […] that had been diluted 800× with PBS containing 1% BSA or with 100 μl human serum that had been diluted 100× with PBS containing 1% BSA. Plates were washed three times with PBS containing 0.05% TWEEN20® (polysorbate 20). Each well was incubated for 1 h at room temperature with a HRP-conjugated IgG antibody (mouse anti-human IgG-HRP monoclonal, clone G18-145, cat no 555788, Becton Dickinson, 100 μl/well of a 1000× dilution in PBS containing 0.05% TWEEN20® (polysorbate 20)). Plates were washed three times with PBS containing 0.05% TWEEN20® (polysorbate 20). Development was performed with 2,2′-azino-di-(3-ethylbenzthiazoline sulfonic acid), ABTS+H2O2 1/1000, 100 μl/well. Optical density was measured at 415 nm with a BIO-RAD, model 680, microplate reader.
Thereafter, the inventors tested these 7 peptides on individual sera, because an epitope is needed to which every person makes antibodies.

[3] = test system: OVA-specific CD8 T cells; test: Systemic antigen-specific T cell priming in TNP-BSA immunized mice challenged with TNP-OVA; format: in vivo
Description: Mice were repeatedly immunized with TNP-BSA resulting in high titers of circulating antibodies against the hapten TNP (TNP immunized) or left non-immunized (naïve).
After 1-2 months all mice were injected with naïve OVA-specific CD8 T cells which were labelled with the fluorescent dye CFSE. After 24 hrs the mice were injected with a single dose of TNP-OVA. 3 days later the mice were sacrificed and OVA-specific proliferation of the labelled T cells was analysed in spleen and lymph nodes by flow cytometry (FIGS. 2a and 2b). The symbols represent individual mice. […] Thus, systemic antigen-specific T cell priming can be facilitated by pre-existing circulating antibodies against hapten-epitopes.

| Molecule | ELISA OD TETAQUIN [1] | ELISA OD SERUM 034960 [2] | OVA-specific proliferation of CFSE labelled T cells in spleen and lymph nodes ([3]; TNP immunized mice vs other groups, single dose TNP-OVA, analysed 3 days later by flow cytometry, P<0.001) | T cell responses against OVA ([3]; TNP-BSA immunized mice compared to control mice vaccinated with BSA without TNP) |
| --- | --- | --- | --- | --- |
| A I G I T E L K K L E S K I N K V F Z O [0942-10] | 1.12 | 1.29 |  |  |
| F I G I T A L K K L E S K I N K V F Z O [0942-15] | 1.24 | 1.28 |  |  |
| F I G A T E L K K L E S K I N K V F Z O [0942-13] | 0.30 | 0.18 |  |  |
| B1 |  |  | significantly different | much higher level |
